Source: publication PMC6768323, “Adverse Maternal, Fetal, and Postnatal Effects of Hexafluoropropylene Oxide Dimer Acid (GenX) from Oral Gestational Exposure in Sprague-Dawley Rats” (Environmental Health Perspectives, 2019)
Several values for one entry are separate records, joined by “and”; a condition that tells them apart may be missing. Equal entries are not always repeated.

Key:
[1] = test system: pregnant Sprague-Dawley rats; assay: Maternal and fetal effects of GD14-18 oral dosing (weights, reproductive output); format: in vivo
Method: A total of three blocks of 15 dams per block were dosed once daily from GD14–18 with either water vehicle (control) or HFPO-DA to evaluate fetal and maternal effects (Figure 1A). The first block of dams was dosed with control, 62.5, 125, 250, or 500mg/kg HFPO-DA ( n=3 dams for each). The second and third blocks of dams were dosed with control, 1, 3, 10, or 30mg/kg HFPO-DA ( n=3 per dose per block). Total sample sizes were n=9 for control, n=6 for 1, 3, 10, 30mg/kg , and n=3 for 62.5, 125, 250, and 500mg/kg HFPO-DA. In the first two blocks, spanning the entire dose range, we evaluated fetal testis testosterone production, fetal testis gene expression, fetal and maternal liver gene expression, fetal body weight, and maternal serum thyroid hormone and lipid concentrations. In the third block, encompassing the lower dose range utilized here, we collected fetal plasma for measuring HFPO-DA concentrations. Across all three blocks we evaluated maternal weight gain during dosing, reproductive output (number of fetuses and resorptions), maternal serum HFPO-DA concentration, and maternal liver weight at necropsy.
For the first two blocks, spanning the full dose range, late gestation (GD18) dams were euthanized by decapitation at ∼2h after the final oral dose [ ∼0830–1000 hours Eastern Standard Time (EST)]. Trunk blood was collected and serum isolated via centrifugation ( 10,000×g for 15 min at 4°C) in vacutainer tubes, transferred to 1.5-mL microcentrifuge tubes and stored at −80°C . Dam liver weight was recorded and a sample of liver tissue was collected into a polypropylene microcentrifuge tube containing 500μL TRIzol Reagent (Invitrogen) on ice. Fetuses were removed and two randomly selected fetuses per litter were weighed. Fetal testes were collected from all male pups with a single testis from the first three males used for determination of ex vivo testosterone production and the remaining testes were homogenized and preserved in TRIzol Reagent for gene expression analysis. The liver was collected from a single, randomly selected fetus per dam/litter for gene expression analysis and transferred to a polypropylene microcentrifuge tube containing 500μL TRIzol Reagent (Invitrogen) on ice. Both dam and fetal liver samples were individually homogenized using a Bullet Blender (Next Advance) with 1-mm zirconium oxide beads, transferred to clean tubes, and stored at −80°C prior to RNA extraction (see below). Ex vivo fetal testis testosterone production was measured as previously reported ([Wilson et al. 2004b]) except the radioimmunoassay (RIA) utilized here was supplied by ALPCO (Catalog No. 72-TESTO-CT2, ALPCO). Briefly, one testis was isolated from each of three separate male fetuses in each litter and incubated in a humidified atmosphere at 37°C for 3 h in 500μL of M-199 media (phenol red–free; Hazelton Biologics, Inc.) supplemented with 10% dextran-coated charcoal-stripped fetal bovine serum (Hyclone Laboratories) in 24-well plates under gentle agitation. After incubation, media were removed and stored in siliconized microcentrifuge tubes at −80°C until RIA analyses, which were performed according to manufacturer specifications.
For the third block, dosed with the lower dose range ( 1–30mg/kg HFPO-DA), late gestation (GD18) dams were euthanized by decapitation ∼2h after the final dose, liver weight was recorded, and trunk blood was collected for serum isolation. Serum was isolated from trunk blood via centrifugation ( 10,000×g; 15 min; 4°C) using Becton Dickinson vacutainer tubes and stored in 1.5-mL siliconized microcentrifuge tubes at −80°C for future analyses. Fetuses were removed and fetal blood was collected from the jugular vein from all fetuses within a litter using heparinized glass capillary tubes. Blood was expelled from capillary tubes using fine-tip disposable transfer pipets into a microcentrifuge tube forming a single composite sample per litter. […]

Sprague-Dawley rats = settings: cited from earlier work
[2] = HFPO-DA concentrations in maternal serum and fetal plasma; format: in vivo, Sprague-Dawley rats
Method: Maternal sera from all three blocks and fetal plasma from the third block were analyzed for HFPO-DA concentrations similar to previously reported methods ([McCord et al. 2018]; [Reiner et al. 2009]; [Rushing et al. 2017]). Serum or plasma samples ( 25μL ) were denatured using 0.1M formic acid (FA) followed by a cold ( −20°C ) acetonitrile (ACN) protein crash. The volumes of FA and ACN varied based on the anticipated concentrations of HFPO-DA in the sample ( 0–100 ng HFPO-DA/mL=100μL FA +0.5mL ACN; 100–5,000 ng HFPO-DA/mL=100μL FA +1.0mL ACN; 5,000–200,000 ng HFPO-DA/mL=1.0mL FA added, then 100-μL subsamples removed and crashed with 900μL cold ACN). Samples were vortex mixed after FA and ACN additions then centrifuged at 10,000×g for 5 min and the supernatant removed. Sample extracts were separated using a Waters ACQUITY ultra performance liquid chromatograph (UPLC) (Waters Corporation) fitted with a Waters ACQUITY UPLC BEH C18 column ( 2.1mm×50mm; 1.7μm; 130 Å ). Detection was performed using a Waters Quattro Premier XE tandem quadrupole mass spectrometer in negative ionization mode. A stable isotope of HFPO-DA ( C313 , Wellington Laboratories) was used as an internal standard for quantitation. Separate calibration curves were prepared for the ranges 0–100 ng/mL , 100–5,000 ng/mL , and 5,000–200,000 ng/mL to account for expected concentration differences between control, offspring (fetus/pup), and dam concentrations across the dose range tested.
Serum HFPO-DA concentrations in the mother and the fetus were analyzed as a function of oral dose administered to the mother. We utilized nonlinear regression (exponential one-phase association) to describe the increase and saturation of serum HFPO-DA concentrations across the full oral dose range ( 1–500mg/kg ) for maternal serum. Fetal plasma HFPO-DA concentrations were only analyzed in the low-dose range ( 1–30mg/kg ), which was better described using a linear uptake model. We compared the slopes of the low-dose linear regressions for maternal serum and fetal plasma HFPO-DA concentrations using GraphPad Prism.

[3] = female rat, oral 10-30 mg/kg; ref Gannon et al. 2016; cited from earlier work

O=C(O)C(F)(OC(F)(F)C(F)(F)C(F)(F)F)C(F)(F)F (stereo not drawn) [HFPO-DA, Hexafluoropropylene oxide dimer acid]
numbers of live pups, resorptions, fetal body weight compared with controls ([1]; 1-500 mg/kg): no significant differences
Dam BW GD18 ([1]; 1-500 mg/kg/d): 378.6 ± 19.1 g and 364.1 ± 15.6 g and 371.5 ± 11.4 g and 354.3 ± 12.4 g and 366.2 ± 9.9 g and 346.7 ± 5.5 g and 350.2 ± 6.0 g and 369.8 ± 15.1 g
No. fetuses ([1]; 1-500 mg/kg/d): 12.3 ± 1.0 and 13.3 ± 0.6 and 13.2 ± 0.5 and 13.5 ± 0.4 and 12.7 ± 0.9 and 14.3 ± 0.3 and 13.7 ± 1.3 and 14.7 ± 0.3
maternal body weight gain compared with controls ([1]; GD14-18 dosing window): significantly less body weight gain at the 250- and 500-mg/kg dose levels
Dam liver wt ([1]; GD18, 1-500 mg/kg/d): 15.8 ± 0.7 g and 16.7 ± 1.1 g and 16.5 ± 0.5 g and 17.2 ± 0.5 g and 17.8 ± 0.7 g and 19.1 ± 0.6 g and 19.6 ± 0.3 g and 19.2 ± 0.6 g
Fetal BW ([1]; GD18, 1-500 mg/kg/d): 908.7 ± 27.0 mg and 816.7 ± 24.2 mg and 841.0 ± 38.4 mg and 842.2 ± 50.5 mg and 863.7 ± 31.7 mg and 841.8 ± 46.7 mg and 889.1 ± 26.9 mg and 808.2 ± 88.9 mg
Dam BW GD14 ([1]; dose order 1, 3, 10, 30, 62.5, 125, 250, 500 mg/kg/d): 337.0 ± 12.9 g and 341.6 ± 14.1 g and 330.8 ± 13.4 g and 338.0 ± 11.5 g and 320.9 ± 8.7 g and 330.6 ± 8.8 g and 325.8 ± 3.7 g and 339.1 ± 10.5 g
dose with higher maternal liver weights ([1]; oral GD14-18): ≥ 62.5 mg/kg
NOAEL (Sprague-Dawley rats; ref Caverly Rae et al. 2015): 1 mg/kg per day
upper dose tolerated in the rat (Sprague-Dawley rats; ref Caverly Rae et al. 2015): 500 mg/kg per day
NOAEL, prenatal developmental toxicity study (Sprague-Dawley rats; ref DuPont 2010): 10 mg/kg per day
dose overtly toxic to the dam (Sprague-Dawley rats; ref DuPont 2010): 1,000 mg/kg per day
fetal plasma HFPO-DA slope per 1-mg/kg increase in oral maternal dose ([2]; 1-30 mg/kg, linear regression): 0.12 µg/mL and 0.12 ± 0.0094 µg/mL
fetal plasma y-intercept ([2]; 1-30 mg/kg, linear regression): 0.17±0.13
maternal serum HFPO-DA slope per 1-mg/kg increase in oral maternal dose ([2]; 1-30 mg/kg, linear regression): 0.46 µg/mL and 0.46 ± 0.06 µg/mL
maternal serum y-intercept ([2]; 1-30 mg/kg, linear regression): 0.032±0.80
plateau of maternal serum HFPO-DA, exponential one-phase association ([2]; 1-500 mg/kg): 112 ± 15 µg/mL
half-life [3]: ~5 h
